Measured values reported in PubChem BioAssay (NCI).
“And” between values parts separate entries of the source, which are not always exact repeats. Identical values can stand only once.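 The compound was tested at five concentrations on cells cultured in 96-well plates, with a 48-hour exposure period. Here, GI50 denotes the concentration required for 50% inhibition of growth. TGI: total growth inhibition.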

Assays:
[1] = tested on: RXF-631 renal; experiment: growth of human tumour cells (NCI), 48 h
[2] = tested on: MDA-N; experiment: growth of human tumour cells (NCI), 48 h

CCOC(=O)C(C(=O)c1ccccc1-c1ccccc1C(=O)O)=P(c1ccccc1)(c1ccccc1)c1ccccc1
TGI [1]: > 100 µM

CCOP1(=O)OCC2OC(n3cnc4c(N)ncnc43)C(O)C2O1 (stereo not given)
TGI [2]: > 100 µM

Cc1c2c(n3c(nc4ccccc43)c1C#N)SCC2
TGI [2]: > 10 µM

C1=C[C@@H]2c3ccc4cnccc4c3NC[C@@H]2C1
TGI [2]: > 100 µM

COC1CC(OC2OC(CO)C(O)C(O)C2O)/C(=C\C#N)C(O)C1OC (stereo not given)
TGI [2]: > 100 µM

COc1ccc(C2SC(N)=Nc3c2c(C)nn3C(=O)c2ccncc2)cc1 (stereo not given)
TGI [2]: > 100 µM

CCCCN(CCCC)C(=Nc1ccccc1)N(CCCC)CCCC
TGI [1]: 26.2 µM

Cc1cc(O)c2c(c1)C[C@@H](O)C1=C2C(=O)c2c(O)ccc(OC3CC(O)C(OC4CC(OC5CCC(OC6CC(O)C(OC7CC(OC8CCC(O)C(C)O8)C(O)C(C)O7)C(C)O6)C(C)O5)C(O)C(C)O4)C(C)O3)c2C1=O (stereo not given in full)
GI50 [2]: 0.207 µM and 0.24 µM | TGI [2]: 0.211 µM and 0.387 µM and 0.562 µM

Nc1nc2nc3c(nc2c(=O)[nH]1)CN(c1ccc(C(=O)O)cc1)C3=O
TGI [2]: > 100 µM

CC(C)NC(=O)OCc1nnn2c1C(OC(=O)NC(C)C)CC2 (stereo not given)
TGI [1]: > 100 µM

NC(=O)C/C=C/CC(N)=O
TGI [2]: > 100 µM

CCc1ccc(Cc2ccc(CC)c(NC(=O)C(=O)Cc3nc4ccccc4nc3C)c2CC)c(CC)c1NC(=O)C(=O)Cc1nc2ccccc2nc1C
TGI [1]: > 100 µM

COC(=O)C1=CC(=O)C(C(=O)Nc2ccc(OC)cc2)C(c2ccccc2)O1 (stereo not given)
TGI [1]: > 83.6 µM

CC1(CCCC2(C)CCNC2=O)OCCO1 (stereo not given)
TGI [2]: > 10 µM

[O-][n+]1onc2c3nn(-c4ccccc4)nc3ccc21
TGI [2]: > 100 µM

O=C1CCCC1C(=O)Nc1ccc2ccccc2c1 (stereo not given)
TGI [2]: > 100 µM

c1ccc([CH2][Sn]([CH2]c2ccccc2)([S]c2cccc3cccnc23)[S]c2cccc3cccnc23)cc1
GI50 [1]: 0.225 µM | TGI [1]: 0.552 µM

N#Cc1c([N+](=O)[O-])cc(C(F)(F)F)cc1[N+](=O)[O-]
TGI [1]: 27.3 µM

CCCCC1(N=[N+]=[N-])C(=O)c2cccc3c2N(CCC3)C1=O (stereo not given)
TGI [2]: > 100 µM

[N-]=[N+]=Nc1ccc(S(=O)(=O)Oc2cc(OS(=O)(=O)c3ccc(N=[N+]=[N-])cc3)cc(OS(=O)(=O)c3ccc(N=[N+]=[N-])cc3)c2)cc1
TGI [1]: > 100 µM

CC(=O)OCC1OC(n2cc(F)c(=O)[nH]c2=O)C(OC(C)=O)C1OC(C)=O (stereo not given)
TGI [1]: > 100 µM | TGI [2]: > 56.2 µM

CCc1nc(N)nc(N)c1-c1ccc(Cl)cc1
TGI [2]: > 100 µM

CN1CCC(O)C(CNC23CC4CC(CC(C4)C2)C3)C1 (stereo not given)
TGI [1]: > 100 µM

Cc1c(C(=O)/C=C/c2ccco2)[n+](=O)c2ccccc2n1[O-]
TGI [1]: > 100 µM

CC/C(=C(\c1ccccc1)c1ccc(OCCN(C)C)cc1)c1ccccc1
GI50 [2]: > 25 µM and 6.53 µM | TGI [2]: > 25 µM and 8.31 µM and 9.59 µM

O=P(O)(O)OC1C(OP(=O)(O)O)C(OP(=O)(O)O)C(OP(=O)(O)O)C(OP(=O)(O)O)C1OP(=O)(O)O (stereo not given)
GI50 [2]: > 2000 µM | TGI [2]: > 2000 µM

COc1ccc(C(=O)O/N=C2\CCCC\C2=C/c2ccccc2)cc1
TGI [1]: > 100 µM

O=C(Nc1ccc(Cl)cc1)NS(=O)(=O)c1ccc2c(c1)CCC2
TGI [2]: > 100 µM

O=C(Nc1nc2ncn(CCOC(=O)c3ccccc3)c2c(=O)[nH]1)c1ccccc1
TGI [1]: > 100 µM | TGI [2]: 7.89 µM
